Experimental data as given in US9340493B2, “Hydroxamic acid derivatives useful as antibacterial agents” (Pfizer Inc., priority 2008, dated 2016).
In brackets after ≈: the same amount, converted by molar mass.

What was measured:
Enterobacter aerogenes = experiment: MIC determination, E. aerogenes; assay type: cell-based; details: Klebsiella aerogenes; quinolone-resistant, ESBL-expressing clinical isolate; * = arithmetic mean of 2-6 MIC determinations; read-out: MIC (ug/mL) E. aerogenes
In short: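 Clinical E. aerogenes isolate, quinolone-resistant and ESBL-expressing. MIC measured in vitro by dilution testing according to CLSI guidelines (M7-A7, M100-S18).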

Escherichia coli EC-1 = experiment: MIC determination, E. coli EC-1; assay type: cell-based; details: EC1, EC-1: VOGEL, * = arithmetic mean of 2-6 MIC determinations, read-out: MIC (ug/mL) E. coli EC-1
In short: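 Minimum inhibitory concentration against Escherichia coli EC-1 was determined in vitro by dilution susceptibility testing under CLSI M7-A7 and M100-S18 guidelines.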

Serratia marcescens = experiment: MIC determination, S. marcescens; assay type: cell-based; details: multidrug-resistant clinical isolate, * = arithmetic mean of 2-6 MIC determinations, read-out: MIC (ug/mL) S. marcescens
Method: MIC determinations: The in vitro antibacterial activity of compounds described in the Examples was evaluated by minimum inhibitory concentration (MIC) testing according to Clinical and Laboratory Standards Institute (CLSI, formerly NCCLS) guidelines. See: Clinical and Laboratory Standards Institute. Methods for Dilution Antimicrobial Susceptibility Tests for Bacteria that Grow Aerobically; Approved Standard-Seventh Edition. CLSI document M7-A7 [ISBN 1-56238-587-9]. Clinical and Laboratory Standards Institute, 940 West Valley Road, Suite 1400, Wayne, Pa. 19087-1898 USA, 2006; also Clinical and Laboratory Standards Institute. Performance Standards for Antimicrobial Susceptibility Testing; Eighteenth Informational Supplement. CLSI document M100-S18 [ISBN1-56238-653-0]. Clinical and Laboratory Standards Institute.
The following bacterial strains were used:
Serratia marcescens: Multidrug-resistant clinical isolate.

P. aeruginosa UI-18 = experiment: MIC determination, P. aeruginosa UI-18; assay type: cell-based; details: Pseudomonas aeruginosa, UI18; wild-type; * = arithmetic mean of 2-6 MIC determinations; read-out: MIC (ug/mL) P. aeruginosa UI-18
In short: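 MIC by broth dilution following CLSI M7-A7 and M100-S18 guidelines, tested against wild-type P. aeruginosa UI-18.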

[1] = biological target: T1, Pseudomonas aeruginosa LpxC enzyme (Pseudomonas aeruginosa, UniProt P47205); experiment: IC50 assay, LpxC enzyme from P. aeruginosa; assay type: biochemical; details: 0.5 nM enzyme, 25° C., pH 8.0, 20 min; ** = average of 2-8 assays
T1 construct: made in house; host or cells: E. coli
T1 sequence (P47205 1-303): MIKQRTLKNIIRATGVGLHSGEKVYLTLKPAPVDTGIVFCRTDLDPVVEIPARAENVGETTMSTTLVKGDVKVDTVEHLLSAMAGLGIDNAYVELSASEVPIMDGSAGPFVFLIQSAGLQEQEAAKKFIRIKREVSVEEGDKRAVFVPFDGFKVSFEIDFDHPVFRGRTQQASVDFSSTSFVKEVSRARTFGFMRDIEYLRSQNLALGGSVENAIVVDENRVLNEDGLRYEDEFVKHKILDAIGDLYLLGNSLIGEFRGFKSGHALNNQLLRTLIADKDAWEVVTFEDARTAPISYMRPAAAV
In short: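 P. aeruginosa LpxC (0.5 nM, expressed in E. coli) reacted with 0.5 uM ³H-acetyl-labelled UDP-3-O-(R-3-hydroxydecanoyl)-GlcNAc in 50 mM sodium phosphate pH 8.0 with 1 mg/ml BSA at 25 °C for 20 min. Charcoal stopped the reaction, and filtrate radioactivity was counted by scintillation after no-enzyme background subtraction.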

[2] = test system: Staphylococcus aureus ATCC 29213; experiment: MIC determination, S. aureus ATCC 29213; assay type: cell-based; details: ATCC29213, CLSI quality control reference strain, * = arithmetic mean of 2-6 MIC determinations, read-out: MIC (ug/mL) S. aureus ATCC 29213
In short: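 MIC was measured by dilution susceptibility testing following CLSI guidelines (M7-A7; M100-S18). The test organism is the CLSI quality-control reference strain.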

[3] = test system: Acinetobacter baumanii/haemolyticus; experiment: MIC determination, A. baumanii/haemolyticus; assay type: cell-based; details: Acinetobacter baumannii; multidrug-resistant clinical isolate; * = arithmetic mean of 2-6 MIC determinations; read-out: MIC (ug/mL) A. baumanii/haemolyticus
In short: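 MICs were determined by CLSI broth dilution (M7-A7, M100-S18) against a multidrug-resistant clinical isolate of Acinetobacter baumanii/haemolyticus.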

Klebsiella pneumoniae = experiment: MIC determination, K. pneumoniae; assay type: cell-based; details: ciprofloxacin-resistant, ESBL-expressing clinical isolate, * = arithmetic mean of 2-6 MIC determinations, read-out: MIC (ug/mL) K. pneumoniae
In short: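 MIC determined by broth dilution per CLSI M7-A7 and M100-S18 guidelines. Strain: ciprofloxacin-resistant, ESBL-expressing clinical isolate of K. pneumoniae.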

P. aeruginosa PAO280 = experiment: MIC determination, P. aeruginosa PAO280; assay type: cell-based; details: Pseudomonas aeruginosa, PAO280, read-out: MIC (ug/mL) P. aeruginosa PAO280
In short: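 Broth dilution MIC per CLSI M7-A7/M100-S18 guidelines. Strain PAO280 lacks efflux pumps MexAB-oprM, MexXY and MexZ.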

Row | Compound | MIC (Enterobacter aerogenes) | MIC (Escherichia coli EC-1) | MIC (Serratia marcescens) | MIC (P. aeruginosa UI-18) | IC50 [1] | MIC [2] | MIC [3] | MIC (Klebsiella pneumoniae) | MIC (P. aeruginosa PAO280) | melting point
1 | Cn1ccnc1[C@H](O)[C@](C)(OCc1ccc(-c2ccccc2)cc1)C(=O)NO [Example 10, (2S,3S)-2-(biphenyl-4-ylmethoxy)-N,3-dihydroxy-2-methyl-3-(1-methyl-1H-imidazol-2-yl)propanamide] | > 64 µg/mL | 48 µg/mL (≈ 126 µM) | 64 µg/mL (≈ 168 µM) | 33 µg/mL (≈ 86.5 µM) | 0.00246 µM | 48 µg/mL (≈ 126 µM) | 64 µg/mL (≈ 168 µM) | 48 µg/mL (≈ 126 µM) | 0.19 µg/mL (≈ 0.498 µM) | 
2 | CC(C)C[C@H](O)[C@](C)(OCc1ccc(-c2ccccc2)cc1)C(=O)NO [Example 6, (2S,3S)-2-(biphenyl-4-ylmethoxy)-N,3-dihydroxy-2,5-dimethylhexanamide] | > 64 µg/mL | > 64 µg/mL | > 64 µg/mL | > 64 µg/mL | 0.16 µM | 64 µg/mL (≈ 179 µM) | > 64 µg/mL | > 64 µg/mL | 64 µg/mL (≈ 179 µM) | 
3 | C[C@H](O)[C@](C)(OCc1ccc(-c2ccccc2)cc1)C(=O)NO [Example 2a, (2S,3S)-2-(biphenyl-4-ylmethoxy)-N,3-dihydroxy-2-methylbutanamide] | > 64 µg/mL | > 64 µg/mL | > 64 µg/mL | 32 µg/mL (≈ 101 µM) | 0.00299 µM | > 64 µg/mL | > 64 µg/mL | > 64 µg/mL | 0.5 µg/mL (≈ 1.59 µM) | 
4 | CC(OCc1ccc(-c2ccccc2)cc1)C(=O)NO (stereo not shown) [Example 54, 2-(biphenyl-4-ylmethoxy)-N-hydroxypropanamide] | > 64 µg/mL | > 64 µg/mL | > 64 µg/mL | > 64 µg/mL | 0.406 µM | > 64 µg/mL | > 64 µg/mL | > 64 µg/mL | 32 µg/mL (≈ 118 µM) | 120 to 123 °C
5 | C[C@@](OCc1ccc(-c2ccccc2)cc1)(C(=O)NO)[C@@H](O)c1ccccc1 [Example 11, (2S,3S)-2-(biphenyl-4-ylmethoxy)-N,3-dihydroxy-2-methyl-3-phenylpropanamide] | > 64 µg/mL | > 64 µg/mL | > 64 µg/mL | > 64 µg/mL | 0.00509 µM | 32 µg/mL (≈ 84.8 µM) | > 64 µg/mL | > 64 µg/mL | 8 µg/mL (≈ 21.2 µM) | 
6 | CCOCC[C@H](O)[C@](C)(OCc1ccc(-c2ccccc2)cc1)C(=O)NO [Example 8, (2S,3S)-2-(biphenyl-4-ylmethoxy)-5-ethoxy-N,3-dihydroxy-2-methylpentanamide] | > 64 µg/mL | > 64 µg/mL | > 64 µg/mL | > 64 µg/mL | 0.0284 µM | > 64 µg/mL | > 64 µg/mL | > 64 µg/mL | 8 µg/mL (≈ 21.4 µM) | 
7 | C[C@@H](O)[C@](C)(OCc1ccc(-c2ccccc2)cc1)C(=O)NO [Example 2b, (2S,3R)-2-(biphenyl-4-ylmethoxy)-N,3-dihydroxy-2-methylbutanamide] | > 64 µg/mL | > 64 µg/mL | > 64 µg/mL | 64 µg/mL (≈ 203 µM) | 0.00435 µM | > 64 µg/mL | > 64 µg/mL | > 64 µg/mL | 0.75 µg/mL (≈ 2.38 µM) | 
8 | C[C@@](OCc1ccc(-c2ccccc2)cc1)(C(=O)NO)[C@@H](O)c1c[nH]cn1 [Example 9, (2S,3S)-2-(biphenyl-4-ylmethoxy)-N,3-dihydroxy-3-(1H-imidazol-4-yl)-2-methylpropanamide] | > 64 µg/mL | > 64 µg/mL | > 64 µg/mL | 8 µg/mL (≈ 21.8 µM) | 0.00084 µM | > 64 µg/mL | > 64 µg/mL | > 64 µg/mL | 0.125 µg/mL (≈ 0.34 µM) | 
